{"source": "patent US20250230193A1", "about": "“CYCLIC COMPOUND HAVING SELECTIVE KRAS INHIBITORY EFFECT ON HRAS AND NRAS” (CHUGAI SEIYAKU KABUSHIKI KAISHA, priority 2022, published 2025)", "key": {"[1]": {"molecular_target": "GDP-bound NRAS wild-type protein (Homo sapiens, UniProt P01111)", "sequence (P01111 whole entry)": "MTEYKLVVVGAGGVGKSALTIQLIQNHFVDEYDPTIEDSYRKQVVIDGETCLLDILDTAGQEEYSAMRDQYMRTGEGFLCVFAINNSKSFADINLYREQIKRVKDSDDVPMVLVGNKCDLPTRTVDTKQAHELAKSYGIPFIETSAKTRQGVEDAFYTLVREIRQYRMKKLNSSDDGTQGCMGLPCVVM", "assay": "Binding to NRAS by surface plasmon resonance (SPR), Single Cycle Kinetics", "settings": "for NRAS/KRAS (ratio of KD value with respect to NRAS to KD value with respect to KRAS): GDP-bound NRAS wild-type vs GDP-bound KRAS wild-type"}, "[2]": {"molecular_target": "GDP-bound HRAS wild-type protein (Homo sapiens, UniProt P01112)", "sequence (P01112 whole entry)": "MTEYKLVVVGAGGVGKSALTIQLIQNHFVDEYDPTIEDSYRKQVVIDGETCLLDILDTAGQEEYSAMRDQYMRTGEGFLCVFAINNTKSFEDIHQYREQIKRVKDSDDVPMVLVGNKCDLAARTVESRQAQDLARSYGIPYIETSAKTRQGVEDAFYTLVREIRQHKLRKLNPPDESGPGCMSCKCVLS", "assay": "Binding to HRAS by surface plasmon resonance (SPR), Single Cycle Kinetics", "settings": "for HRAS/KRAS (ratio of KD value with respect to HRAS to KD value with respect to KRAS): GDP-bound HRAS wild-type vs GDP-bound KRAS wild-type"}, "[3]": {"settings": "SPR, GDP-bound wild-type proteins"}}, "note": "Where a SMILES comes first, the peptide text is derived from it. Bridges are numbered along the chain shown (N, C = ends). [ ]: non-standard residue; d: D form. The star is where a group is joined. hPhe(3,5-F2-4-CF3) = N[C@@H](CCc1cc(F)c(C(F)(F)F)c(F)c1)C(=O)O; hPhe(3-Cl-4-CF3) = N[C@@H](CCc1ccc(C(F)(F)F)c(Cl)c1)C(=O)O; NPrPhe(4-CF3) = CCCN[C@@H](Cc1ccc(C(F)(F)F)cc1)C(=O)O; NEtPhe(4-CF3) = CCN[C@@H](Cc1ccc(C(F)(F)F)cc1)C(=O)O; NMeGly(cPent) = CN[C@H](C(=O)O)C1CCCC1; NMeD = CN[C@@H](CC(=O)O)C(=O)O; NMeL = CN[C@@H](CC(C)C)C(=O)O; αMeS = C[C@](N)(CO)C(=O)O; Ac6c = NC1(C(=O)O)CCCCC1; Morpholide = C1CN(*)CCO1; NMeA = CN[C@@H](C)C(=O)O; Aze = O=C(O)[C@@H]1CCN1; Aib = CC(C)(N)C(=O)O; Sar = CNCC(=O)O; Allyl = C=CC*", "data": [{"molecule": "CCC[C@H]1C(=O)N[C@@H]([C@@H](C)CC)C(=O)N2CCC[C@H]2C(=O)N(C)[C@H]2C/C=C\\CCN(C2=O)[C@@H](Cc2ccc(C)cc2)C(=O)N(C)CC(=O)N[C@@H](CCc2ccc(C(F)(F)F)c(OC)c2)C(=O)N2C[C@H](OCC)C[C@H]2C(=O)N(C)C2(CCC2)C(=O)N(C)[C@@H](C2CCCC2)C(=O)N(C)[C@H](C(=O)N(C)C)CC(=O)N1C", "note": "[PP2332]", "values": [{"measurement": "NRAS/KRAS (ratio of KD value with respect to NRAS to KD value with respect to KRAS)", "setting": "[1]; SPR", "value": "A (a compound having 10 or more and less than 20 is denoted as A)"}, {"measurement": "HRAS/KRAS (ratio of KD value with respect to HRAS to KD value with respect to KRAS)", "setting": "[2]; SPR", "value": "B (a compound having 3 or more and less than 10 is denoted as B)"}]}, {"molecule": "CCO[C@@H]1C[C@H]2C(=O)NC3(CC(C)(C)C3)C(=O)N(C)[C@@H](C(CC)CC)C(=O)N(C)[C@H](C(=O)N(C)C)CC(=O)N(C)[C@H]3CCCCCCc4ccc(cc4)C[C@@H](C(=O)N(C)CC(=O)N[C@@H](CCc4ccc(C(F)(F)F)c(OC)c4)C(=O)N2C1)N1CC/C=C\\C[C@@H](C1=O)N(C)C(=O)CN(C)C(=O)[C@H]([C@@H](C)CC)NC3=O", "note": "[PP3032]", "values": [{"measurement": "NRAS/KRAS (ratio of KD value with respect to GDP-bound NRAS wild-type protein to KD value with respect to KRAS)", "setting": "[1]; [3]", "value": "AA (a compound having 20 or more is denoted as AA)"}, {"measurement": "HRAS/KRAS (ratio of KD value with respect to GDP-bound HRAS wild-type protein to KD value with respect to KRAS)", "setting": "[2]; [3]", "value": "A (a compound having 10 or more and less than 20 is denoted as A)"}]}, {"molecule": "CCCN1C(=O)CN(C)C(=O)CN(C)C(=O)[C@H]([C@@H](C)CC)NC(=O)[C@H](CC(C)C)N(C)C(=O)C[C@@H](C(=O)N2CCOCC2)N(C)C(=O)[C@H](C2CCCC2)N(C)C(=O)C(C)(C)NC(=O)[C@@H]2CCCN2C(=O)[C@H](CCc2ccc(C(F)(F)F)c(Cl)c2)NC(=O)CN(C)C(=O)[C@@H]1Cc1ccc(C(F)(F)F)cc1", "note": "[PP0230] ([NMeL]I[Sar][Sar][NPrPhe(4-CF3)][Sar][hPhe(3-Cl-4-CF3)]P[Aib][NMeGly(cPent)][NMeD]-Morpholide; lactam N-11)", "values": [{"measurement": "NRAS/KRAS (ratio of KD for GDP-bound NRAS wild-type to KD for KRAS)", "setting": "[1]; SPR", "value": "B (a compound having 3 or more and less than 10 is denoted as B)"}, {"measurement": "HRAS/KRAS (ratio of KD for GDP-bound HRAS wild-type to KD for KRAS)", "setting": "[2]; SPR", "value": "C (A compound having a KD ratio of 0.1 or more and less than 3 is denoted as C)"}]}, {"molecule": "CCO[C@@H]1C[C@H]2C(=O)NC3(CCC3)C(=O)N(C)[C@@H](C3CCCC3)C(=O)N(C)[C@H](C(=O)N3CCOCC3)CC(=O)N(C)[C@@H](Cc3cccnc3)C(=O)N[C@@H]([C@@H](C)CC)C(=O)N(C)CC(=O)N(C)[C@H]3CCCCN(C3=O)[C@@H](Cc3ccc(C(F)(F)F)cc3)C(=O)N(C)CC(=O)N[C@@H](CCc3cc(F)c(C(F)(F)F)c(F)c3)C(=O)N2C1", "note": "[PP0718]", "values": [{"measurement": "NRAS/KRAS (ratio of KD value with respect to GDP-bound NRAS wild-type protein to KD value with respect to KRAS)", "setting": "[1]; SPR", "value": "C (A compound having a KD ratio of 0.1 or more and less than 3 is denoted as C)"}, {"measurement": "HRAS/KRAS (ratio of KD value with respect to GDP-bound HRAS wild-type protein to KD value with respect to KRAS)", "setting": "[2]; SPR", "value": "B (a compound having 3 or more and less than 10 is denoted as B)"}]}, {"molecule": "CC[C@H](C)[C@@H]1NC(=O)[C@H](CC(C)C)N(C)C(=O)C[C@@H](C(=O)N2CCOCC2)N(C)C(=O)[C@H](C2CCCC2)N(C)C(=O)C2(CCCCC2)NC(=O)[C@@H]2CCCN2C(=O)[C@H](CCc2ccc(C(F)(F)F)c(Cl)c2)NC(=O)CN(C)C(=O)[C@H](Cc2ccc(C(F)(F)F)cc2)N(CC)C(=O)[C@@H]2CCN2C(=O)[C@H](C)N(C)C1=O", "note": "[PP0222] ([NMeL]I[NMeA][Aze][NEtPhe(4-CF3)][Sar][hPhe(3-Cl-4-CF3)]P[Ac6c][NMeGly(cPent)][NMeD]-Morpholide; lactam N-11)", "values": [{"measurement": "NRAS/KRAS (ratio of KD for GDP-bound NRAS wild-type to KD for KRAS)", "setting": "[1]; SPR", "value": "C (A compound having a KD ratio of 0.1 or more and less than 3 is denoted as C)"}, {"measurement": "HRAS/KRAS (ratio of KD for GDP-bound HRAS wild-type to KD for KRAS)", "setting": "[2]; SPR", "value": "C (A compound having a KD ratio of 0.1 or more and less than 3 is denoted as C)"}]}, {"molecule": "CCC[C@H]1C(=O)N[C@@H]([C@@H](C)CC)C(=O)N(C)CC(=O)N(C)[C@H]2C/C=C\\CCN(C2=O)[C@@H](Cc2ccc(C(F)(F)F)cc2)C(=O)N(C)CC(=O)N[C@@H](CCc2ccc3sc(C)c(C)c3c2)C(=O)N2C[C@H](OCC)C[C@H]2C(=O)NC2(CC(C)(C)C2)C(=O)N(C)[C@@H](C(CC)CC)C(=O)N(C)[C@H](C(=O)N(C)C)CC(=O)N1C", "note": "[PP2900]", "values": [{"measurement": "NRAS/KRAS (ratio of KD value with respect to GDP-bound NRAS wild-type protein to KD value with respect to KRAS)", "setting": "[1]; class symbols", "value": "AA (a compound having 20 or more is denoted as AA)"}, {"measurement": "HRAS/KRAS (ratio of KD value with respect to GDP-bound HRAS wild-type protein to KD value with respect to KRAS)", "setting": "[2]; class symbols", "value": "A (a compound having 10 or more and less than 20 is denoted as A)"}]}, {"molecule": "CCCOC[C@H]1C(=O)N[C@@H]([C@@H](C)CC)C(=O)N(C)CC(=O)N(C)[C@H]2C/C=C\\CCN(C2=O)[C@@H](CC2CCC(F)(F)CC2)C(=O)N(C)CC(=O)N[C@@H](CCc2ccc(C(F)(F)F)c(OC)c2)C(=O)N2C[C@H](OCC)C[C@H]2C(=O)N(C)C2(CCC2)C(=O)N(C)[C@@H](C2CCCC2)C(=O)N(C)[C@H](C(=O)N(C)C)CC(=O)N1C", "note": "[PP2350]", "values": [{"measurement": "NRAS/KRAS (ratio of KD value with respect to NRAS to KD value with respect to KRAS)", "setting": "[1]; SPR", "value": "A (a compound having 10 or more and less than 20 is denoted as A)"}, {"measurement": "HRAS/KRAS (ratio of KD value with respect to HRAS to KD value with respect to KRAS)", "setting": "[2]; SPR", "value": "A (a compound having 10 or more and less than 20 is denoted as A)"}]}, {"molecule": "CCC(CC)[C@H]1C(=O)N(C)[C@H](C(=O)N(C)C)CC(=O)N(C)[C@H]2CCC/C=C/c3ccc(cc3)C[C@@H](C(=O)N(C)CC(=O)N[C@@H](CCc3cc(F)c(C(F)(F)F)c(F)c3)C(=O)N3CCC[C@H]3C(=O)NC3(CC(C)(C)C3)C(=O)N1C)N1CC/C=C\\C[C@@H](C1=O)N(C)C(=O)CN(C)C(=O)[C@H]([C@@H](C)CC)NC2=O", "note": "[PP2600]", "values": [{"measurement": "NRAS/KRAS (ratio of KD value with respect to GDP-bound NRAS wild-type protein to KD value with respect to KRAS)", "setting": "[1]; class symbols", "value": "A (a compound having 10 or more and less than 20 is denoted as A)"}, {"measurement": "HRAS/KRAS (ratio of KD value with respect to GDP-bound HRAS wild-type protein to KD value with respect to KRAS)", "setting": "[2]; class symbols", "value": "A (a compound having 10 or more and less than 20 is denoted as A)"}]}, {"molecule": "CCO[C@@H]1C[C@H]2C(=O)NC3(CCC3)C(=O)N(C)[C@@H](C3CCCC3)C(=O)N(C)[C@H](C(=O)N3CCOCC3)CC(=O)N(C)[C@@H](CC(C)C)C(=O)N[C@@H]([C@@H](C)CC)C(=O)N(C)CC(=O)N(C)[C@H]3CCCCCN(C3=O)[C@@H](Cc3ccc(F)c(Cl)c3)C(=O)N(C)CC(=O)N[C@@H](CCc3cc(F)c(C(F)(F)F)c(F)c3)C(=O)N2C1", "note": "[PP0919]", "values": [{"measurement": "NRAS/KRAS (ratio of KD value with respect to NRAS to KD value with respect to KRAS)", "setting": "[1]; KD ratio, SPR", "value": "B (a compound having 3 or more and less than 10 is denoted as B)"}, {"measurement": "HRAS/KRAS (ratio of KD value with respect to HRAS to KD value with respect to KRAS)", "setting": "[2]; KD ratio, SPR", "value": "B (a compound having 3 or more and less than 10 is denoted as B)"}]}, {"molecule": "CCO[C@@H]1C[C@H]2C(=O)NC3(CC(C)(C)C3)C(=O)N(C)[C@@H](C3CCCC3)C(=O)N(C)[C@H](C(=O)N(C)CC)CC(=O)N(C)[C@@H](CC)C(=O)N[C@@H]([C@@H](C)CC)C(=O)N(C)CC(=O)N(C)[C@H]3C/C=C\\CCN(C3=O)[C@@H](Cc3ccc(C(F)(F)F)cc3)C(=O)N(C)CC(=O)N[C@@H](CCc3ccc(C(F)(F)F)c(Cl)c3)C(=O)N2C1", "note": "[PP2823]", "values": [{"measurement": "NRAS/KRAS (ratio of KD value with respect to GDP-bound NRAS wild-type protein to KD value with respect to KRAS)", "setting": "[1]; class symbols", "value": "A (a compound having 10 or more and less than 20 is denoted as A)"}, {"measurement": "HRAS/KRAS (ratio of KD value with respect to GDP-bound HRAS wild-type protein to KD value with respect to KRAS)", "setting": "[2]; class symbols", "value": "A (a compound having 10 or more and less than 20 is denoted as A)"}]}, {"molecule": "C=CCOC[C@]1(C)NC(=O)[C@@H]2CCCN2C(=O)[C@H](CCc2cc(F)c(C(F)(F)F)c(F)c2)NC(=O)CN(C)C(=O)[C@H](Cc2ccc(C(F)(F)F)cc2)N(CCC)C(=O)CN(C)C(=O)CN(C)C(=O)[C@H]([C@@H](C)CC)NC(=O)[C@H](CC(C)C)N(C)C(=O)C[C@@H](C(=O)N(C)C)N(C)C(=O)[C@H](C2CCCC2)N(C)C1=O", "note": "[PP0742] ([NMeL]I[Sar][Sar][NPrPhe(4-CF3)][Sar][hPhe(3,5-F2-4-CF3)]P[αMeS](Allyl)[NMeGly(cPent)][NMeD]-NMe2; lactam N-11)", "values": [{"measurement": "NRAS/KRAS (ratio of KD value with respect to GDP-bound NRAS wild-type protein to KD value with respect to KRAS)", "setting": "[1]; SPR", "value": "B (a compound having 3 or more and less than 10 is denoted as B)"}, {"measurement": "HRAS/KRAS (ratio of KD value with respect to GDP-bound HRAS wild-type protein to KD value with respect to KRAS)", "setting": "[2]; SPR", "value": "B (a compound having 3 or more and less than 10 is denoted as B)"}]}]}
